# Measurements as given in US8778871B2 (Takeda Pharmaceutical Company Limited, priority 2004, dated 2014).
# Non-standard residues stand in square brackets, D forms with d. Primed or numbered codes have the meaning given here. No end group written: not given here. *: point of attachment. Phe(4-F) = N[C@@H](Cc1ccc(F)cc1)C(=O)O; 2Nal = N[C@@H](Cc1ccc2ccccc2c1)C(=O)O; Arg(Me) = CNC(=N)NCCC[C@H](N)C(=O)O; dNMeY = CN[C@H](Cc1ccc(O)cc1)C(=O)O; Tic = O=C(O)[C@@H]1Cc2ccccc2CN1; 2Thi = N[C@@H](Cc1cccs1)C(=O)O; Cha = N[C@@H](CC1CCCCC1)C(=O)O; pGlu = O=C1CC[C@@H](C(=O)O)N1; Adipoyl′ = not defined here; Orn = NCCC[C@H](N)C(=O)O; Hexanoyl = CCCCCC(=O)*; Propionyl = CCC(=O)*; azaGly = NNC(=O)O; For = O=C*
# How the values were obtained:
# [1] = molecular target: T1, hOT7T175 (Homo sapiens, UniProt Q969F8, L364H); format: cell-based; conditions: hOT7T175/CHO, FLIPR, evaluation for 40 seconds after initiation of the reaction
# T1 construct: expressed in transfected cells
# Experimental: The intracellular Ca ion level-increasing activity was measured using FLIPR as in TEST EXAMPLE 2.
# [2] = Blood testosterone level decreasing effect in mature male rat (0.1 mM peptide solution); format: in vivo
# Experimental: This peptide solution was filled in 5 ALZET osmotic pumps (Model 2001, 0.2 ml in volume, release rate: 0.001 ml/hr, DURECT Corporation). The ALZET pumps filled with the peptide solution were implanted subcutaneously in 5 CD(SD)IGS male rats of 9 weeks old after birth (Charles River Japan, Inc.) on the back under ether anesthesia by one pump for one animal. For negative control, distilled water (Otsuka Pharmaceutical Co., Ltd.) was filled in 5 ALZET osmotic pumps, which were similarly implanted in 5 male CD(SD)IGS rats (Charles River Japan, Inc.), respectively. These pump-implanted rats were fed for 6 days under normal feeding conditions. After weighing, the animal was decapitated to collect blood. After 0.03 ml/ml blood of aprotinin solution (Trasylol, Bayer) containing 0.1 mg/ml EDTA.2Na was added to blood, the mixture was centrifuged at 1,800 G for 25 minutes to isolate/recover plasma. From the plasma obtained, 0.05 ml was applied to radioimmunoassay (DPC.Total Testosterone Kit, Diagnostic Products Corporation) to measure the plasma testosterone level of each rat. The value below the limit of measurement (0.04 ng/ml of plasma level) in radioimmunoassay was treated as 0. A mean value of the testosterone levels from 5 rats receiving the peptide was calculated and a relative value (percent) of the mean value to a mean value from 5 rats receiving distilled water.
# In a manner similar to TEST EXAMPLE 14, evaluation was made using 0.1 mM peptide solution and a part of the results obtained are shown in TABLE 30.
# [3] = Action of reducing testosterone level in blood in mature male rat (1 mM peptide in 50% DMSO, ALZET osmotic pump); format: in vivo; conditions: 1 mM peptide in 50% DMSO aqueous solution, ALZET osmotic pump s.c., six days
# Experimental: The peptide was encapsulated in five ALZET osmotic pump (Model 2001, 0.2 ml of volume, releasing rate 0.001 ml/hr, DURECT Corporation). The ALZET pumps encapsulated with the peptide solution were implanted to dorsal subcutaneous of five male CD (SD) IGS rat at nine weeks age (Charles River Japan, Inc.) anesthesized with ether for one pump to one rat. Separately, for negative controls, the ALZET osmotic pumps encapsulated with distilled water were implanted to five male CD (SD) IGS rat (Charles River Japan, Inc.) The rats were bred for six days under the normal conditions. After weighing, blood was collected by decapitation. To 1 ml of blood, 0.03 ml of aprotinin (Trasylol, Byer) solution containing 0.1 g/ml EDTA 2Na was added. The plasma was isolated by centrifugation at 1,800×g for 25 minutes and collected. The thus obtained plasma, 0.05 ml was effected by radioimmunoassay. (DPC Total Testosterone Kit, Diagnostic Products Corporation) to measure testosterone level in blood of each rat. The value beneath measuring limit of radioimmunoassay (0.04 ng/ml as concentration of plasma) was treated as zero. The mean values for testosterone level of five rats, to which the peptide was given, was calculated and the relative value (percentage) for the mean values of testosterone level of five rats, to which distilled watrer was given, was estimated.
# [4] = molecular target: T2, hOT7T175 (Homo sapiens, UniProt Q969F8); test: Intracellular Ca ion level-increasing activity using FLIPR (180 seconds; specific activity to Metastin (1-54)); format: cell-based; conditions: hOT7T175/CHO, change in intracellular calcium ion level for 180 seconds, Tables 21-23
# T2 construct: expressed in transfected cells
# T2 sequence (Q969F8 whole entry L364H): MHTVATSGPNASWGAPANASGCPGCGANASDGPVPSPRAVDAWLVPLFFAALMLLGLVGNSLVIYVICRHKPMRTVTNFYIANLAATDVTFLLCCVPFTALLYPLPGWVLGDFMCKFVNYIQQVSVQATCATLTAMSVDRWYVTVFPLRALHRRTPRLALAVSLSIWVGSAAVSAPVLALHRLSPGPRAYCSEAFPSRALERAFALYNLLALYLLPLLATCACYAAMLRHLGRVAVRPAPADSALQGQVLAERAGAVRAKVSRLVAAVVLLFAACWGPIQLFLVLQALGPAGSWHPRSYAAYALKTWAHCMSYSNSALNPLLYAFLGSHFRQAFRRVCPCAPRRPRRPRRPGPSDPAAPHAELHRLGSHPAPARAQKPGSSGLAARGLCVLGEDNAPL
# T1 sequence (Q969F8 whole entry L364H): as above
Substance,Specific Act. (EC50/MS10 EC50) [1],Teststerone level in Blood [2],Testosterone level in Blood [3],intracellular Ca ion level-increasing activity [specific activity to Metastin (1-54)] [4]
3-(4-Hydroxyphenyl)propionyl-D-Trp-Asn-Thr-Phe-AzaGly-Leu-Arg(Me)-Trp-NH2 [Compound No. 559],0.3,17%,–,–
Ac-Tyr-Trp-Asn-Thr-Phe-AzaGly-Leu-Arg(Me)-Trp-NH2 (Ac-YWNTF[azaGly]L[Arg(Me)]W-NH2; SMILES CNC(=N)NCCC[C@H](NC(=O)[C@H](CC(C)C)NC(=O)NNC(=O)[C@H](Cc1ccccc1)NC(=O)[C@@H](NC(=O)[C@H](CC(N)=O)NC(=O)[C@H](Cc1c[nH]c2ccccc12)NC(=O)[C@H](Cc1ccc(O)cc1)NC(C)=O)[C@@H](C)O)C(=O)N[C@@H](Cc1c[nH]c2ccccc12)C(N)=O) [Compound No. 664],0.6,–,6%,–
Ac-Y[dW]NTF[azaGly]L[Arg(Me)]W-NH2 [Compound No. 615],0.7,–,2%,–
Ac-[dA][dW]NTF[azaGly]L[Arg(Me)]W-NH2 [Compound No. 616],1.1,–,2%,–
Ac-[dF][dW]NTF[azaGly]L[Arg(Me)]W-NH2 [Compound No. 618],1.6,–,2%,–
Ac-[dK][dW]NTF[azaGly]L[Arg(Me)]W-NH2 [Compound No. 621],1.9,–,2%,–
Ac-[dL][dW]NTF[azaGly]L[Arg(Me)]W-NH2 [Compound No. 617],2.4,–,2%,–
Ac-[dNMeY][dW]NTF[azaGly]L[Arg(Me)]W-NH2 [Compound No. 602],2.4,–,2%,–
Ac-[dY]WNTF[azaGly]L[Arg(Me)]W-NH2 [Compound No. 623],0.6,–,2%,–
Ac-[dY][Tic]NTF[azaGly]L[Arg(Me)]W-NH2 [Compound No. 662],0.7,–,2%,–
Ac-[dY][dA]NTF[azaGly]L[Arg(Me)]W-NH2 [Compound No. 625],2.8,–,2%,–
Ac-[dY][dE]NTF[azaGly]L[Arg(Me)]W-NH2 [Compound No. 630],4.2,–,2%,–
Ac-[dY][dF]NTF[azaGly]L[Arg(Me)]W-NH2 [Compound No. 627],1.6,–,2%,–
Ac-[dY][dK]NTF[azaGly]L[Arg(Me)]W-NH2 [Compound No. 629],3.4,–,2%,–
Ac-[dY][dL]NTF[azaGly]L[Arg(Me)]W-NH2 [Compound No. 626],2.1,–,2%,–
Ac-[dY][dW]NTFGL[Arg(Me)]W-NH2 [Compound No. 598],0.3,–,2%,–
Ac-[dY][dW]NTF[azaGly]LRW-NH2 [Compound No. 600],0.3,–,2%,–
Ac-[dY][dW]NTF[azaGly]L[Arg(Me)]Y-NH2 [Compound No. 591],1.2,–,2%,–

Substance,Specific Act. (EC50/MS10 EC50) [1],Teststerone level in Blood [2],Testosterone level in Blood [3],intracellular Ca ion level-increasing activity [specific activity to Metastin (1-54)] [4]
Ac-[dY][dW]NTF[azaGly]L[Arg(Me)][2Nal]-NH2 [Compound No. 589],2.3,–,2%,–
Ac-[dY][dW]NTF[azaGly]L[Arg(Me)][2Thi]-NH2 [Compound No. 590],1.4,–,2%,–
Ac-[dY][dW]NTF[azaGly]L[Arg(Me)][Cha]-NH2 [Compound No. 595],11.4,–,3%,–
Ac-[dY][dW]NTF[azaGly]L[Arg(Me)][Phe(4-F)]-NH2 [Compound No. 592],1.1,–,2%,–
Ac-[dY][dW]NTF[azaGly]L[Orn]W-NH2 [Compound No. 599],0.5,–,2%,–
Ac-[dY][dW]NTF[azaGly]V[Arg(Me)]W-NH2 [Compound No. 642],3.7,–,2%,–
Ac-[dY][dW]NT[Phe(4-F)][azaGly]L[Arg(Me)]W-NH2 [Compound No. 637],0.8,–,2%,–
Adipoyl-D-Trp-Asn-Thr-Phe-AzaGly-Leu-Arg(Me)-Trp-NH2 ({Adipoyl′}-[dW]NTF[azaGly]L[Arg(Me)]W-NH2) [Compound No. 671],3.6,–,2%,–
D-Tyr-D-Pya(4)-Asn-Ser-Phe-AzaGly-Leu-Arg(Me)-PheΨ(CSNH)NH2 [Compound No. 548],1.7,–,18%,–
D-Tyr-D-Pya(4)-Asn-Thr-Phe-AzaGly-Leu-Arg(Me)-Trp-NH2 [Compound No. 501],1.1,–,2%,10
D-Tyr-D-Tyr-D-Trp-Asn-Thr-Phe-AzaGly-Leu-Arg(Me)-Trp-NH2 ([dY][dY][dW]NTF[azaGly]L[Arg(Me)]W-NH2; N-terminus assumed; SMILES CNC(=N)NCCC[C@H](NC(=O)[C@H](CC(C)C)NC(=O)NNC(=O)[C@H](Cc1ccccc1)NC(=O)[C@@H](NC(=O)[C@H](CC(N)=O)NC(=O)[C@@H](Cc1c[nH]c2ccccc12)NC(=O)[C@@H](Cc1ccc(O)cc1)NC(=O)[C@H](N)Cc1ccc(O)cc1)[C@@H](C)O)C(=O)N[C@@H](Cc1c[nH]c2ccccc12)C(N)=O) [Compound No. 650],0.6,–,2%,–
For-[dY][dW]NTF[azaGly]L[Arg(Me)]W-NH2 [Compound No. 612],0.8,–,2%,–
G[dY][dW]NTF[azaGly]L[Arg(Me)]W-NH2 [Compound No. 648],1.6,–,2%,–
Hexanoyl-D-Trp-Asn-Thr-Phe-AzaGly-Leu-Arg(Me)-Trp-NH2 (Hexanoyl-[dW]NTF[azaGly]L[Arg(Me)]W-NH2; SMILES CCCCCC(=O)N[C@H](Cc1c[nH]c2ccccc12)C(=O)N[C@@H](CC(N)=O)C(=O)N[C@H](C(=O)N[C@@H](Cc1ccccc1)C(=O)NNC(=O)N[C@@H](CC(C)C)C(=O)N[C@@H](CCCNC(=N)NC)C(=O)N[C@@H](Cc1c[nH]c2ccccc12)C(N)=O)[C@@H](C)O) [Compound No. 667],1.4,–,2%,–
Propionyl-[dY][dW]NTF[azaGly]L[Arg(Me)]W-NH2 [Compound No. 613],0.4,–,2%,–
Tyr-D-Tyr-D-Trp-Asn-Thr-Phe-AzaGly-Leu-Arg(Me)-Trp-NH2 (Y[dY][dW]NTF[azaGly]L[Arg(Me)]W-NH2; N-terminus assumed; SMILES CNC(=N)NCCC[C@H](NC(=O)[C@H](CC(C)C)NC(=O)NNC(=O)[C@H](Cc1ccccc1)NC(=O)[C@@H](NC(=O)[C@H](CC(N)=O)NC(=O)[C@@H](Cc1c[nH]c2ccccc12)NC(=O)[C@@H](Cc1ccc(O)cc1)NC(=O)[C@@H](N)Cc1ccc(O)cc1)[C@@H](C)O)C(=O)N[C@@H](Cc1c[nH]c2ccccc12)C(N)=O) [Compound No. 675],0.8,–,2%,–
pGlu-D-Tyr-D-Trp-Asn-Thr-Phe-AzaGly-Leu-Arg(Me)-Trp-NH2 ([pGlu][dY][dW]NTF[azaGly]L[Arg(Me)]W-NH2; SMILES CNC(=N)NCCC[C@H](NC(=O)[C@H](CC(C)C)NC(=O)NNC(=O)[C@H](Cc1ccccc1)NC(=O)[C@@H](NC(=O)[C@H](CC(N)=O)NC(=O)[C@@H](Cc1c[nH]c2ccccc12)NC(=O)[C@@H](Cc1ccc(O)cc1)NC(=O)[C@@H]1CCC(=O)N1)[C@@H](C)O)C(=O)N[C@@H](Cc1c[nH]c2ccccc12)C(N)=O) [Compound No. 652],0.9,–,2%,–
